PMC6271349, “Synthesis and Biological Evaluation of 2-Phenoxyacetamide Analogues, a Novel Class of Potent and Selective Monoamine Oxidase Inhibitors” (Molecules, 2014)
Read-outs that look alike come from different tables or passages of the source.

Assays:
Assay type in all cases: biochemical
[1] = biological target: T1, Human recombinant Monoamine Oxidase B (Homo sapiens, UniProt P27338); assay: MAOs inhibitory assay (fluorescence-based microplate), MAO-B; conditions: recombinant enzyme; inhibitor incubated 37 °C 3 h, borate buffer pH 8.4; mean IC50
T1 construct: purchased Sigma Aldrich M7441
T1 sequence (P27338 1-520): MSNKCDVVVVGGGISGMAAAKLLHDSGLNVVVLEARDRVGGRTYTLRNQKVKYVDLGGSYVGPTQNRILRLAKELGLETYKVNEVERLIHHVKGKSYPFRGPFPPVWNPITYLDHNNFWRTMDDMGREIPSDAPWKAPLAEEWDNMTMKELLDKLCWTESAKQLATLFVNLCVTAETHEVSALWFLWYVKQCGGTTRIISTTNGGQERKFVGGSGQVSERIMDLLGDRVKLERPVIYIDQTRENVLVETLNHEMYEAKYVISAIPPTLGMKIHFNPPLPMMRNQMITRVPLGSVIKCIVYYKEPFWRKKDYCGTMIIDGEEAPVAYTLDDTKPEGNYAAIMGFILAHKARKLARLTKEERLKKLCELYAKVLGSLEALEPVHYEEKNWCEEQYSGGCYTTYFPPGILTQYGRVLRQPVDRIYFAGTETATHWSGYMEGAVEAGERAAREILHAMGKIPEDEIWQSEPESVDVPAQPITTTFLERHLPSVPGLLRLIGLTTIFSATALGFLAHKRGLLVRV
Method: (§1) All of these compounds were evaluated for their inhibitory abilities towards MAOs. The inhibition activities against MAO-A and MAO-B of the synthesized compounds were investigated by our reported method.
(§2) Silica gel (100–200 mesh, Qingdao Haiyang Chemical Co., Qingdao, China) was used for flash column chromatography. Analytical thin-layer chromatography was performed with GF254 silica gel. ^1H-NMR spectra were recorded on a Bruker Avance 300 MHz apparatus. HR-ESI-MS and HR-EI analysis were measured on a Bruker micrOTOF-QII and Waters GCT Premier GC-TOF-MS spectrometer, respectively. All chemicals were purchased from the Eastern China Chemical Co (Hangzhou, China). All fluorescent data was recorded on Spectrum M2 (Molecular Device Company). Human recombinant Monoamine Oxidase A (M7316) and B (M7441) (5 mg/mL) were purchased from Sigma Aldrich. Pierce BCA protein assay kit (23227) was purchased from Thermo Scientific.
(§3) MAO IC50 values were determined using our reported fluorescence-based microplate assay. […] The fluorescent signals were measured at λex 360 nm and λem 460 nm on a Spectrum-M2 spectrofluorometer.

[2] = biological target: T2, Human recombinant Monoamine Oxidase A (Homo sapiens, UniProt P21397); assay: MAOs inhibitory assay (fluorescence-based microplate), MAO-A; conditions: for SI (selectivity index): SI = (IC50 of MAO-B)/(IC50 of MAO-A); for IC50: recombinant enzyme
T2 construct: purchased Sigma Aldrich M7316
T2 sequence (P21397 1-527): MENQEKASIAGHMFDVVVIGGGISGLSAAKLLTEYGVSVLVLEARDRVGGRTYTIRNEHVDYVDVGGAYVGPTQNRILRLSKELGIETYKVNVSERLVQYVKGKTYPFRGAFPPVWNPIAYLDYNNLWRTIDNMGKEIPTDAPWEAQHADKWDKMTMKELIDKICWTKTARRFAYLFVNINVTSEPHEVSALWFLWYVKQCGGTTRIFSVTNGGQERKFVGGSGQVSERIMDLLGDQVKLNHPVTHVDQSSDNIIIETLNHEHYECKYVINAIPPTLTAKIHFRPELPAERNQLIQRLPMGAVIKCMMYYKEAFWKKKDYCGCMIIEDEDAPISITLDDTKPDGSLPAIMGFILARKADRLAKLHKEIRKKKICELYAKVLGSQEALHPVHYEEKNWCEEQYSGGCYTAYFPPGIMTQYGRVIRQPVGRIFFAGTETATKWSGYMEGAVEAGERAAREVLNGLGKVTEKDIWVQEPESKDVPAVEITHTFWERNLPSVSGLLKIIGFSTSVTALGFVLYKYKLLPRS
Method: as §1, §2, §3

[3] = biological target: T3, native MAO-A in SH-SY5Y (neuroblastoma cells) lysate (Homo sapiens, UniProt P21397); assay: MAO inhibitory activity in SH-SY5Y cell lysate (endogenous MAO-A); conditions: for IC50: SH-SY5Y lysate (only endogenous MAO-A activity), repeated three times; for times more potent in SH-SY5Y lysate relative to HepG2 lysate: ratio of lysate IC50 values (HepG2/SH-SY5Y)
T3 construct: endogenous in cells; host or cells: SH-SY5Y (neuroblastoma cells) lysate
T3 sequence (P21397 1-527): T2 sequence (P21397 1-527)
Method: (§4) Compounds 12, 21, 22, 25 were chosen for comparison due to their excellent inhibitory activities, and the results were shown in Table 2. […] This is most likely due to the instability of imine group in cell lysates.
as §3
(§5) Cells were cultured at 37 °C and 5% CO2 in RPMI-1640 media containing 100 units/mL penicillin, 100 μg/mL streptomycin, and 10% FBS. For lysis, cells were resuspended at 5 × 10^7 cells/mL in lysis buffer (42.3 mM PBS, 126 mM NaCl, 1.27 mM MgCl2, 0.85 mM EDTA, 1 mM PMSF, 0.95% Triton X-100, 9.5% glycerol, 4% 25× complete protease inhibitor, pH 7.4). The cells were vortexed to mix and keep on ice for 30 min, and then sonicated to break the cells (180 watts). The cell lysate was then clarified by ultracentrifugation at 4 °C for 30 min at 45,000. Total protein concentration was determined via a Bradford Protein Assay Kit (Bio-Rad) and cell lysates were stored at −80 °C until further use.

[4] = biological target: T4, native MAO-B in HepG2 (human hepatocellular liver carcinoma cell) lysate (Homo sapiens, UniProt P27338); assay: MAO inhibitory activity in HepG2 cell lysate (endogenous MAO-B); conditions: HepG2 lysate (only endogenous MAO-B activity); repeated three times
T4 construct: endogenous in cells; host or cells: HepG2 (human hepatocellular liver carcinoma cell) lysate
T4 sequence (P27338 1-520): T1 sequence (P27338 1-520)
Method: as §4, §3, §5

MAO-B = biological target: T5, MAO-B (Homo sapiens, UniProt P27338); assay: Reversibility of MAO-B inhibition (repeated washing method); conditions: for reversibility of MAO-B inhibition: repeated washing method; for inhibition at 0.1 µM: inhibitor 100 nM
T5 construct: purchased Sigma Aldrich M7441
T5 sequence (P27338 1-520): T1 sequence (P27338 1-520)
Method: (§6) Reversibility of the MAO inhibition with derivatives of acetamides was evaluated by a reported method. […] After incubating for 2 h, an aliquot was stored at 4 °C for the measurement of MAO-A and -B activity. The remaining reaction solution was placed in an Ultrafree-0.5 centrifugal tube with a 30 kDa Biomax membrane (Millipore) and centrifuged at 9000 g for 20 min at 4 °C. The enzyme retained in the membrane was resuspended in a sodium phosphate buffer and centrifuged two successive times. Then, the enzyme retained in the membrane was resuspended in PBS ([…]) and an aliquot of this suspension was used for MAO-A and -B activity measurement. In order to define 100% MAO activity, control experiments were performed simultaneously by replacing the inhibitors with appropriate dilutions of the vehicles. The corresponding values of percent MAO isoforms inhibition (with and without repeated washing) were calculated based on the control experiments.

MAO-A = biological target: T6, MAO-A (Homo sapiens, UniProt P21397); assay: Reversibility of MAO-A inhibition (repeated washing method); conditions: for inhibition at 0.1 µM: inhibitor 100 nM; for reversibility of MAO-A inhibition: repeated washing method
T6 construct: purchased Sigma Aldrich M7316
T6 sequence (P21397 1-527): T2 sequence (P21397 1-527)
Method: as §6

[5] = inhibitor incubated 37 °C 3 h, borate buffer pH 8.4, mean IC50, read-out: IC50 (μM) MAO-A
[6] = after repeated washing, read-out: MAO-A Inhibiton (%) After Washing
[7] = before washing, read-out: MAO-A Inhibiton (%) Before Washing

SMILES | IC50 [1] [µM] | SI (selectivity index) [2] | IC50 [2, 5] [µM] | further results
Cc1ccc(OCC(N)=O)cc1C [Compound 8] | 534 | 4.73 | 113 | 
C#CCN=Cc1ccccc1OCC(N)=O [Compound 25] | 0.176 | 2.59 | 0.068 | IC50 [3]: 0.88 µM; times more potent in SH-SY5Y lysate relative to HepG2 lysate [3]: 2.1 times; IC50 [4]: 1.81 µM
NC(=O)COc1ccccc1C=O [Compound 7] | 559 | 3.94 | 142 | 
NC(=O)COc1ccc(C=O)cc1 [Compound 6] | 457 | 5.13 | 89 | 
NC(=O)COc1ccc2ccccc2c1 [Compound 2] | 542 | 3.64 | 149 | 
NC(=O)COc1ccccc1C1=NCCN1 [Compound 20] | 714 | 3.84 | 186 | 
C[C@H](NCc1ccc(OCc2cccc(F)c2)cc1)C(N)=O [Safinamide, reference compound] |  |  |  | enzyme activity recovered after repeated washing (MAO-B) (MAO-B; after repeated washing): more than 80%; reversibility of MAO-B inhibition (MAO-B): reversible; enzyme activity recovered after repeated washing (MAO-A) (MAO-A; after repeated washing): more than 80%; inhibition at 0.1 µM (MAO-A; [6]): 9.8%; inhibition at 0.1 µM (MAO-A; [7]): 36.1%; reversibility of MAO-A inhibition (MAO-A): reversible
NC(=O)CSc1ccccc1 [Compound 17] | 642 | 3.87 | 166 | 
NC(=O)COc1ccc(Cl)cc1 [Compound 4] | 202 | 0.41 | 490 | 
COc1ccc(OCC(N)=O)cc1 [Compound 12, 2-(4-Methoxyphenoxy)acetamide] | 980 | 245 | 4 | enzyme activity recovered after repeated washing (MAO-B) (MAO-B; after repeated washing): more than 80%; inhibition at 0.1 µM (MAO-B; after repeated washing, read-out: MAO-B Inhibiton (%) After Washing): 8.6%; inhibition at 0.1 µM (MAO-B; before washing, read-out: MAO-B Inhibiton (%) Before Washing): 96.9%; reversibility of MAO-B inhibition (MAO-B): reversible; IC50 [3]: 5.4 µM; enzyme activity recovered after repeated washing (MAO-A) (MAO-A; after repeated washing): more than 80%; inhibition at 0.1 µM (MAO-A; [6]): 12.5%; inhibition at 0.1 µM (MAO-A; [7]): 88.7%; reversibility of MAO-A inhibition (MAO-A): reversible
CC(=O)Nc1ccc(OCC(N)=O)cc1 [Compound 16] | 553 | 9.07 | 61 | 
NC(=O)COc1ccc(C2=NCCN2)cc1 [Compound 19] | 506 | 8.30 | 61 | 
C#CCN=Cc1ccc(OCC(N)=O)cc1 [Compound 21, 2-(4-((prop-2-ynylimino)methyl)phenoxy)acetamide] | 0.076 | 4.22 |  | IC50 ([2]; read-out: IC50 value (MAO-A)): 0.018 µM; IC50 [3]: 0.18 µM; times more potent in SH-SY5Y lysate relative to HepG2 lysate [3]: 2.3 times; IC50 [4]: 0.41 µM
CC(C)(C)OC(=O)Nc1ccc(OCC(N)=O)cc1 [Compound 15] | 296 | 1.51 | 196 | 
NC(=O)COc1ccccc1C(=O)O [Compound 13] | 177 | 0.82 | 217 | 
COC(=O)c1ccccc1OCC(N)=O [Compound 14] | 98 | 0.91 | 108 | 
NC(=O)COc1ccc(F)cc1 [Compound 3] | 255 | 2.77 | 92 | 
COc1ccccc1OCC(N)=O [Compound 11] | 775 | 8.07 | 96 | 
Cc1ccc(OCC(N)=O)cc1 [Compound 10] | 541 | 180 | 3 | 
NC(=O)COc1ccc(C=NCc2ccccc2)cc1 [Compound 23] | 575 | 5.99 | 96 | 
Cc1ccccc1OCC(N)=O [Compound 9] | 663 | 25.5 | 26 | 
NC(=O)COc1ccccc1 [Compound 1] | 778 | 11.27 | 69 | 
Cc1ccc(SCC(N)=O)cc1C [Compound 18] | 366 |  | 292 | 
NC(=O)COc1ccccc1Cl [Compound 5] | 694 | 7.08 | 98 | 
